# According to patent US6914045B2, “Glycopeptide antibiotics” (Wyeth Holdings Corporation, priority 2001, dated 2005):
# Experiments:
# [1] = anatomic pathology (histopathology of heart and kidney) in mice; assay type: in vivo; conditions: CD-1 mice, 20 mg/kg intravenously daily for 9 days, necropsy day 10, microscopic histopathology
# Experimental: Samples of tissues from necropsied mice were formalin-fixed, paraffin-embedded, sectioned, stained with hematoxylin and eosin, and examined microscopically. Histopathologic findings were recorded. These findings were subjectively graded on a scale corresponding to slight, mild, moderate, marked and severe as compared to untreated controls.
# Escherichia coli = test: in vitro antibacterial evaluation, MIC by broth dilution; assay type: cell-based; conditions: 18 hours at 35° C.
# How it was run: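 Broth dilution MIC per NCCLS M7-A2 in Mueller-Hinton II medium, inoculum 5×10^5 CFU/mL, antibiotic range 64-0.06 μg/mL. MIC taken as lowest concentration inhibiting growth.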
# Enterococcus sp. = test: as above; assay type: cell-based; conditions: broth dilution, 18 hours at 35° C.
# How it was run: (§1)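 MIC = lowest antibiotic concentration preventing visible growth; inoculum 5×10^5 CFU/mL; drug range 64-0.06 μg/mL; Muller-Hinton II […]; NCCLS M7-A2 guidance.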
# Streptococcus sp. = test: as above; assay type: cell-based; conditions: broth dilution, 18 hours at 35° C.
# How it was run: as §1
# Staphylococcus sp. = test: as above; assay type: cell-based; conditions: broth dilution, 18 hours at 35° C.; for MIC Staphylococcus aureus (ATCC 29213): strain ATCC 29213; for MIC Staphylococcus aureus (GC 1131): strain GC 1131; for MIC Staphylococcus aureus (GC 3051): strain GC 3051; for MIC Staphylococcus aureus (GC 3053): strain GC 3053; for MIC Staphylococcus aureus (GC 4541): strain GC 4541; for MIC Staphylococcus aureus (GC 4542): strain GC 4542; for MIC Staphylococcus aureus-SMITH (GC 4543): strain GC 4543; for MIC Staphylococcus aureus (GC 4544): strain GC 4544; for MIC Staphylococcus aureus (GC 4545): strain GC 4545; for MIC Staphylococcus haemolyticus (GC 4546): strain GC 4546; for MIC Coagulase Negative Staphylococcus (GC 4547): strain GC 4547; for MIC Coagulase Negative Staphylococcus (GC 4548): strain GC 4548; for MIC Coagulase Negative Staphylococcus (GC 4549): strain GC 4549; for MIC Coagulase Negative Staphylococcus (GC 4551): strain GC 4551; for MIC Coagulase Negative Staphylococcus (GC 6257): strain GC 6257
# How it was run: as §1
# [2] = Enterococcus faecalis (ATCC 29212)
# [3] = Enterococcus faecalis (GC 4552)
# [4] = Enterococcus faecalis (GC 4553)
# [5] = Enterococcus faecalis (GC 4554)
# [6] = Enterococcus faecalis (GC 6189)
smiles,measurement,setting,value
"CN=C1N(C)CC(CC2NC(=O)C(Cc3ccc(OC4OC(CO)C(OC5OC(CO)C(O)C(O)C5O)C(O)C4O)cc3)NC(=O)C(C(C)c3ccccc3)NC(=O)CNC(=O)C(CO)NC(=O)C(CC3CN(C)C(=NC)N3C3OC(CO)C(O)C(O)C3O)NC2=O)N1C (stereo not drawn) [Example 74, Cyclo[3-[1,3-dimethyl-2-(methylimino)imidazolidin-4-yl]alanyl-3-[3-hexopyranosyl-1-methyl-2-(methylimino)imidazolidin-4-yl]alanylserylglycyl-β-methylphenylalanyl-O-(4-O-hexopyranosylhexopyranosyl)tyrosyl]]","Anatomical Pathology (Day 10), Heart",[1],0
same,"Anatomical Pathology (Day 10), Kidney",[1],0
same,MIC Escherichia coli (ATCC 25922),Escherichia coli,>128 µg/mL
same,MIC Escherichia coli (GC 4559),Escherichia coli,>128 µg/mL
same,MIC Escherichia coli (GC 4560),Escherichia coli,>128 µg/mL
same,MIC Enterococcus avium (GC 4558),Enterococcus sp.; Enterococcus avium (GC 4558),128 µg/mL
same,MIC Enterococcus faecalis (ATCC 29212),Enterococcus sp.; [2],>128 µg/mL
same,MIC Enterococcus faecalis (GC 4552),Enterococcus sp.; [3],>128 µg/mL
same,MIC Enterococcus faecalis (GC 4553),Enterococcus sp.; [4],>128 µg/mL
same,MIC Enterococcus faecalis (GC 4554),Enterococcus sp.; [5],>128 µg/mL
same,MIC Enterococcus faecalis (GC 6189),Enterococcus sp.; [6],>128 µg/mL
same,MIC Enterococcus faecium (GC 2243),Enterococcus sp.; Enterococcus faecium (GC 2243),>128 µg/mL
same,MIC Enterococcus faecium (GC 4556),Enterococcus sp.; Enterococcus faecium (GC 4556),>128 µg/mL
same,MIC Enterococcus faecium (GC 4557),Enterococcus sp.; Enterococcus faecium (GC 4557),128 µg/mL
same,MIC Enterococcus avium (GC 4558),Enterococcus sp.,128 µg/mL
same,MIC Enterococcus faecalis (ATCC 29212),Enterococcus sp.,>128 µg/mL
same,MIC Enterococcus faecalis (GC 2242),Enterococcus sp.,>128 µg/mL
same,MIC Enterococcus faecalis (GC 2691),Enterococcus sp.,>128 µg/mL
same,MIC Enterococcus faecalis (GC 3059),Enterococcus sp.,>128 µg/mL
same,MIC Enterococcus faecalis (GC 4552),Enterococcus sp.,>128 µg/mL
same,MIC Enterococcus faecalis (GC 4553),Enterococcus sp.,>128 µg/mL
same,MIC Enterococcus faecalis (GC 4554),Enterococcus sp.,>128 µg/mL
same,MIC Enterococcus faecalis (GC 6189),Enterococcus sp.,>128 µg/mL
same,MIC Enterococcus faecium (GC 2243),Enterococcus sp.,>128 µg/mL
same,MIC Enterococcus faecium (GC 4556),Enterococcus sp.,>128 µg/mL
same,MIC Enterococcus faecium (GC 4557),Enterococcus sp.,128 µg/mL
same,MIC Enterococcus faecalis (GC 2242),Enterococcus sp.; strain GC 2242,>128 µg/mL
same,MIC Enterococcus faecalis (GC 2691),Enterococcus sp.; strain GC 2691,>128 µg/mL
same,MIC Enterococcus faecalis (GC 3059),Enterococcus sp.; strain GC 3059,>128 µg/mL
same,MIC Streptococcus agalactiae (GC 4564),Streptococcus sp.,128 µg/mL
same,MIC Streptococcus pneumoniae (ATCC 6301),Streptococcus sp.,>128 µg/mL
same,MIC Streptococcus pneumoniae (GC 1894),Streptococcus sp.,128 µg/mL
same,MIC Streptococcus pneumoniae (GC 4565),Streptococcus sp.,>128 µg/mL
same,MIC Streptococcus pyogenes (GC 4563),Streptococcus sp.,>128 µg/mL
same,MIC Streptococcus pneumoniae (ATCC 6301),Streptococcus sp.; strain ATCC 6301,>128 µg/mL
same,MIC Streptococcus pneumoniae (GC 1894),Streptococcus sp.; strain GC 1894,128 µg/mL
same,MIC Streptococcus pyogenes (GC 4563),Streptococcus sp.; strain GC 4563,>128 µg/mL
same,MIC Streptococcus agalactiae (GC 4564),Streptococcus sp.; strain GC 4564,128 µg/mL
same,MIC Streptococcus pneumoniae (GC 4565),Streptococcus sp.; strain GC 4565,>128 µg/mL
same,MIC Staphylococcus aureus (ATCC 29213),Staphylococcus sp.,>128 µg/mL
same,MIC Staphylococcus aureus (GC 1131),Staphylococcus sp.,>128 µg/mL
same,MIC Staphylococcus aureus (GC 3051),Staphylococcus sp.,>128 µg/mL
same,MIC Staphylococcus aureus (GC 3053),Staphylococcus sp.,>128 µg/mL
same,MIC Staphylococcus aureus (GC 4541),Staphylococcus sp.,>128 µg/mL
same,MIC Staphylococcus aureus (GC 4542),Staphylococcus sp.,>128 µg/mL
same,MIC Staphylococcus aureus-SMITH (GC 4543),Staphylococcus sp.,>128 µg/mL
same,MIC Staphylococcus aureus (GC 4544),Staphylococcus sp.,>128 µg/mL
same,MIC Staphylococcus aureus (GC 4545),Staphylococcus sp.,>128 µg/mL
same,MIC Staphylococcus haemolyticus (GC 4546),Staphylococcus sp.,>128 µg/mL
same,MIC Coagulase Negative Staphylococcus (GC 4547),Staphylococcus sp.,>128 µg/mL
same,MIC Coagulase Negative Staphylococcus (GC 4548),Staphylococcus sp.,>128 µg/mL
same,MIC Coagulase Negative Staphylococcus (GC 4549),Staphylococcus sp.,>128 µg/mL
same,MIC Coagulase Negative Staphylococcus (GC 4551),Staphylococcus sp.,>128 µg/mL
same,MIC Coagulase Negative Staphylococcus (GC 6257),Staphylococcus sp.,>128 µg/mL
"CC(c1ccccc1)C1NC(=O)CNC(=O)C(CO)NC(=O)C(C(O)C2CN(Cc3ccccc3)C(=N)N2C2OC(CO)C(O)C(O)C2O)NC(=O)C(C(O)C2CNC(=N)N2)NC(=O)C(Cc2ccc(OC3OC(CO)C(OC4OC(CO)C(O)C(O)C4O)C(O)C3O)cc2)NC1=O (stereo not drawn) [Example 59, Cyclo[glycyl-β-methylphenylalanyl-O-(4-O-hexopyranosylhexopyranosyl)tyrosyl-(2-iminoimidazolidin-4-yl)seryl-3-[1-benzyl-3-hexopyranosyl-2-iminoimidazolidin-4-yl]serylseryl]]","Anatomical Pathology (Day 10), Heart",[1],0
same,"Anatomical Pathology (Day 10), Kidney",[1],0
same,MIC Escherichia coli (ATCC 25922),Escherichia coli,>128 µg/mL
same,MIC Escherichia coli (GC 4559),Escherichia coli,>128 µg/mL
same,MIC Escherichia coli (GC 4560),Escherichia coli,>128 µg/mL
same,MIC Enterococcus avium (GC 4558),Enterococcus sp.; Enterococcus avium (GC 4558),128 µg/mL
same,MIC Enterococcus faecalis (ATCC 29212),Enterococcus sp.; [2],>128 µg/mL
same,MIC Enterococcus faecalis (GC 4552),Enterococcus sp.; [3],>128 µg/mL
same,MIC Enterococcus faecalis (GC 4553),Enterococcus sp.; [4],>128 µg/mL
same,MIC Enterococcus faecalis (GC 4554),Enterococcus sp.; [5],>128 µg/mL
same,MIC Enterococcus faecalis (GC 6189),Enterococcus sp.; [6],>128 µg/mL
same,MIC Enterococcus faecium (GC 2243),Enterococcus sp.; Enterococcus faecium (GC 2243),>128 µg/mL
same,MIC Enterococcus faecium (GC 4556),Enterococcus sp.; Enterococcus faecium (GC 4556),>128 µg/mL
same,MIC Enterococcus faecium (GC 4557),Enterococcus sp.; Enterococcus faecium (GC 4557),128 µg/mL
same,MIC Enterococcus avium (GC 4558),Enterococcus sp.,128 µg/mL
same,MIC Enterococcus faecalis (ATCC 29212),Enterococcus sp.,>128 µg/mL
same,MIC Enterococcus faecalis (GC 2242),Enterococcus sp.,>128 µg/mL
same,MIC Enterococcus faecalis (GC 2691),Enterococcus sp.,>128 µg/mL
same,MIC Enterococcus faecalis (GC 3059),Enterococcus sp.,>128 µg/mL
same,MIC Enterococcus faecalis (GC 4552),Enterococcus sp.,>128 µg/mL
same,MIC Enterococcus faecalis (GC 4553),Enterococcus sp.,>128 µg/mL
same,MIC Enterococcus faecalis (GC 4554),Enterococcus sp.,>128 µg/mL
same,MIC Enterococcus faecalis (GC 6189),Enterococcus sp.,>128 µg/mL
same,MIC Enterococcus faecium (GC 2243),Enterococcus sp.,>128 µg/mL
same,MIC Enterococcus faecium (GC 4556),Enterococcus sp.,>128 µg/mL
same,MIC Enterococcus faecium (GC 4557),Enterococcus sp.,128 µg/mL
same,MIC Enterococcus faecalis (GC 2242),Enterococcus sp.; strain GC 2242,>128 µg/mL
same,MIC Enterococcus faecalis (GC 2691),Enterococcus sp.; strain GC 2691,>128 µg/mL
same,MIC Enterococcus faecalis (GC 3059),Enterococcus sp.; strain GC 3059,>128 µg/mL
same,MIC Streptococcus agalactiae (GC 4564),Streptococcus sp.,>128 µg/mL
same,MIC Streptococcus pneumoniae (ATCC 6301),Streptococcus sp.,128 µg/mL
same,MIC Streptococcus pneumoniae (GC 1894),Streptococcus sp.,64 µg/mL
same,MIC Streptococcus pneumoniae (GC 4565),Streptococcus sp.,128 µg/mL
same,MIC Streptococcus pyogenes (GC 4563),Streptococcus sp.,>128 µg/mL
same,MIC Streptococcus pneumoniae (ATCC 6301),Streptococcus sp.; strain ATCC 6301,128 µg/mL
same,MIC Streptococcus pneumoniae (GC 1894),Streptococcus sp.; strain GC 1894,64 µg/mL
same,MIC Streptococcus pyogenes (GC 4563),Streptococcus sp.; strain GC 4563,>128 µg/mL
same,MIC Streptococcus agalactiae (GC 4564),Streptococcus sp.; strain GC 4564,>128 µg/mL
same,MIC Streptococcus pneumoniae (GC 4565),Streptococcus sp.; strain GC 4565,128 µg/mL
same,MIC Staphylococcus aureus (ATCC 29213),Staphylococcus sp.,>128 µg/mL
same,MIC Staphylococcus aureus (GC 1131),Staphylococcus sp.,>128 µg/mL
same,MIC Staphylococcus aureus (GC 3051),Staphylococcus sp.,>128 µg/mL
same,MIC Staphylococcus aureus (GC 3053),Staphylococcus sp.,>128 µg/mL
same,MIC Staphylococcus aureus (GC 4541),Staphylococcus sp.,>128 µg/mL
same,MIC Staphylococcus aureus (GC 4542),Staphylococcus sp.,>128 µg/mL
same,MIC Staphylococcus aureus-SMITH (GC 4543),Staphylococcus sp.,>128 µg/mL
same,MIC Staphylococcus aureus (GC 4544),Staphylococcus sp.,>128 µg/mL
same,MIC Staphylococcus aureus (GC 4545),Staphylococcus sp.,>128 µg/mL
same,MIC Staphylococcus haemolyticus (GC 4546),Staphylococcus sp.,>128 µg/mL
same,MIC Coagulase Negative Staphylococcus (GC 4547),Staphylococcus sp.,>128 µg/mL
same,MIC Coagulase Negative Staphylococcus (GC 4548),Staphylococcus sp.,>128 µg/mL
same,MIC Coagulase Negative Staphylococcus (GC 4549),Staphylococcus sp.,>128 µg/mL
same,MIC Coagulase Negative Staphylococcus (GC 4551),Staphylococcus sp.,>128 µg/mL
same,MIC Coagulase Negative Staphylococcus (GC 6257),Staphylococcus sp.,>128 µg/mL
